Legend:
MM1S cells = test: Subcutaneous xenograft model, in vivo synergy of S09 drug combinations; set-up: species or system CB17-SCID immunosuppressed mice; details: MM1S s.c. xenograft, CB17-SCID mice; for Tumor volume: i.p.: B 0.5, C 50, D 0.5 mg/kg days 1 and 4, S09 4 mg/kg each 12 hours
Protocol: CB17-SCID immunosuppressed mice (female) of 6-7 weeks old housed and handled in a pathogen-free zone. They were purchased from Janvier Labs (France). All experiments were carried out within the facilities of the University of Salamanca (Spain).
Control: Medium (PBS), intraperitoneally (i.p.), each 12 hours on days 1 to 5.
Treatment Groups: • Monotherapy: • Bortezomib 0.5 mg/kg i.p. on days 1 and 4. • Cyclophosphamide 50 mg/kg i.p. on days 1 and 4 • Dexamethasone 0.5 mg/kg i.p. on days 1 and 4 • S09 4 mg/kg i.p. each 12 hours on days 1 to 7 • Double combinations: • Bortezomib 0.5 mg/kg i.p. on days 1 and 4+S09 4 mg/kg i.p. each 12 hours on days 1 to 7 • Cyclophosphamide 50 mg/kg i.p. on days 1 and 4+S09 4 mg/kg i.p. each 12 hours on days 1 to 7 • Dexamethasone 0.5 mg/kg i.p. on days 1 and 4+S09 4 mg/kg i.p. each 12 hours on days 1 to 7 • Bortezomib 0.5 mg/kg i.p. on days 1 and 4+Cyclophosphamide 50 mg/kg i.p. on days 1 and 4 • Cyclophosphamide 50 mg/kg i.p. on days 1 and 4+Dexamethasone 0.5 mg/kg i.p. on days 1 and 4 • Dexamethasone 0.5 mg/kg i.p. on days 1 and 4+Bortezomib 0.5 mg/kg i.p. on days 1 and 4 • Triple combinations: • Bortezomib 0.5 mg/kg i.p. on days 1 and 4+Dexamethasone 0.5 mg/kg i.p. on days 1 and 4+S09 4 mg/kg i.p. each 12 hours on days 1 to 7 • Cyclophosphamide 50 mg/kg i.p. on days 1 and 4+Dexamethasone 0.5 mg/kg i.p. on days 1 and 4+S09 4 mg/kg i.p. each 12 hours on days 1 to 7
Mice were shaved on the right flank and anesthetized by inhalation to decrease their mobility, were inoculated subcutaneously with 3×10^6 MM1S cells in 50 μl of RPMI-1640 medium and 50 μl of Corning @ Matrigel® Basement Membrane Matrix. […] This was estimated by measurements with a caliper of the two tumor diameters and using the following formula of a spheroid: […]
Where a and b correspond to the longest and shortest diameter, respectively. Tumor volume was monitored three times per week.
The treatment endpoint was determined by the value of tumor volume in the mouse (a range of 2000-2200 mm3).

[1] = Growth inhibition activity, comparative test of Example 3 (cell lines not given); format: cell-based; details: Example 3, comparison with stapled versions
From the text: Following the same protocol as the one disclosed in previous sections, the following activity data were obtained: […]

[2] = day of treatment 5, relative to day 1
[3] = day of treatment 10, relative to day 1
[4] = day of treatment 15, relative to day 1
[5] = day of treatment 24, relative to day 1

CC(C)C[C@H](NC(=O)[C@H](Cc1ccccc1)NC(=O)c1cnccn1)B(O)O [B, bortezomib]
normalized tumor volume percentage (%) (MM1S cells; day of treatment 1 (= 100)): 100.00% | Tumor volume (MM1S cells; day of treatment 1): 119.96 mm^3 | normalized tumor volume percentage (%) (MM1S cells; [2]): 138.36% | Tumor volume (MM1S cells; day of treatment 5): 165.98 mm^3 | normalized tumor volume percentage (%) (MM1S cells; [3]): 230.48% | Tumor volume (MM1S cells; day of treatment 10): 276.48 mm^3 | normalized tumor volume percentage (%) (MM1S cells; [4]): 470.62% | Tumor volume (MM1S cells; day of treatment 15): 564.56 mm^3 | normalized tumor volume percentage (%) (MM1S cells; [5]): 1410.31% | Tumor volume (MM1S cells; day of treatment 24): 1691.81 mm^3

O=P1(N(CCCl)CCCl)NCCCO1 (stereo not shown) [C, cyclophosphamide]
normalized tumor volume percentage (%) (MM1S cells; day of treatment 1 (= 100)): 100.00% | Tumor volume (MM1S cells; day of treatment 1): 120.75 mm^3 | normalized tumor volume percentage (%) (MM1S cells; [2]): 156.92% | Tumor volume (MM1S cells; day of treatment 5): 189.48 mm^3 | normalized tumor volume percentage (%) (MM1S cells; [3]): 247.48% | Tumor volume (MM1S cells; day of treatment 10): 298.83 mm^3 | normalized tumor volume percentage (%) (MM1S cells; [4]): 552.57% | Tumor volume (MM1S cells; day of treatment 15): 667.23 mm^3 | normalized tumor volume percentage (%) (MM1S cells; [5]): 1252.21% | Tumor volume (MM1S cells; day of treatment 24): 1512.04 mm^3

C[C@@H]1C[C@H]2[C@@H]3CCC4=CC(=O)C=C[C@]4(C)[C@@]3(F)[C@@H](O)C[C@]2(C)[C@@]1(O)C(=O)CO [D, dexamethasone]
normalized tumor volume percentage (%) (MM1S cells; day of treatment 1 (= 100)): 100.00% | Tumor volume (MM1S cells; day of treatment 1): 120.35 mm^3 | normalized tumor volume percentage (%) (MM1S cells; [2]): 110.62% | Tumor volume (MM1S cells; day of treatment 5): 133.13 mm^3 | normalized tumor volume percentage (%) (MM1S cells; [3]): 270.68% | Tumor volume (MM1S cells; day of treatment 10): 325.76 mm^3 | normalized tumor volume percentage (%) (MM1S cells; [4]): 524.90% | Tumor volume (MM1S cells; day of treatment 15): 631.72 mm^3 | normalized tumor volume percentage (%) (MM1S cells; [5]): 1206.21% | Tumor volume (MM1S cells; day of treatment 24): 1451.67 mm^3

Pro-Lys-Val-Val-11e-Leu-Lys-Lys-Ala-Thr-Ala-Tyr-Ile (PKVVILKKATAYI; wild type sequence) [SEQ ID NO: 11]
growth inhibition activity [1]: does not present growth inhibition activity

From patent US20200261534A1, “NEW TREATMENTS OF MULTIPLE MYELOMA” (priority 2017, published 2020)
